# From patent publication US11844801B2, “Oral compositions of MK2 pathway inhibitor for treatment of immune conditions” (priority 2020, dated 2023)
# Read-outs that look alike come from different tables or passages of the source.
# What was measured:
# TNF-α = experiment: LPS stimulated TNF-α production in human whole blood; type: cell-based
# Procedure: Compounds were serially diluted in 100% DMSO (Sigma-Aldrich, D2650) followed by a 50× dilution into DMEM/10% FBS (Gibco, 11965/26140). Vehicle consisted of DMSO at a final assay concentration of 0.1%. Pin tools (V&P Scientific, Inc., VP246) were placed in the wells and the plate was placed at 37° C. with 5% CO2, with gently shaking for five minutes, then pin tools were removed and saved. […] Pin tools were placed in the wells in the same orientation as the previous step and gently shook for five minutes at 37° C. with 5% CO2, then removed. […] The plasma was harvested and assayed for TNF-α, IL-1β, and IL-6 using Meso Scale Discovery Technology V-plex human cytokine kits according to the kit protocol. The kit plates were read using an MSD Sector S 6000 instrument. Calculations to establish cytokine calibration curves and to determine analyte concentrations in the samples were carried out using the MSD DISCOVERY WORKBENCH® analysis software.
# [1] = system: endogenous cytokines (TNF-α, IL-6, IL-8, MIP1β, IL-1RA); experiment: Phase 2a RA study: endogenous plasma cytokines; type: in vivo, human; details: 50 mg BID
# Procedure: Pharmacodynamics. […] For the endogenous cytokine levels (e.g., TNF-α, IL-1β, IL-6, IL-8, IFNγ, IL-17, IL-18, IL-10, IL-1α, and IL-1RA), 1 mL of serum will be drawn at each identified time point. […] Samples were evaluated at trough drug levels through day 84 and the last point is near Cmax following the final dose on day 84. The horizontal line ( ? ) in FIG. 19A depicts TNF-α levels in blood from normal volunteer subjects that were evaluated in the same assay. […] The horizontal line ( ? ) in FIG. 19B represents IL-1RA levels in healthy subjects. […] Plasma levels of three proinflammatory cytokines (TNF-α (FIG. 20A), IL-6 (FIG. 20C), IL-8 (FIG. 20B)), from a 13-plex tested are shown in this Figure, along with the chemokine MIP1β (FIG. 20D). The data are expressed as median % change relative to pre-dosing for drug treated patients. […] The horizontal line ( ? ) describes cytokine/chemokine level in plasma from normal healthy volunteer subjects.
# IL-6 = experiment: A549 IL-1β stimulated IL-6 assay; type: cell-based; details: Homo sapiens, A549 cells, 1 ng/mL, 18 hr
# Procedure: A549 IL-1β stimulated IL-6 Assay—A549 cells (American Type Culture Collection, […]) were grown in Ham's F-12K (Kaighn's) (Gibco, 21127-022) with penicillin-streptomycin (10 U/mL) (Gibco, 15140-122) and 10% fetal bovine serum (Gibco, 26140-079). Cells were grown to 80% confluence then trypsinized to remove cells. Cells were plated in 96 well flat bottom plates in complete media and allowed to recover overnight. Cells were pretreated for one hour in the presence of serially diluted compound or vehicle (0.5% DMSO) (Sigma-Aldrich, D2650) then stimulated with IL-1β (1 ng/mL) (R&D Systems, 201-LB-005) for 18 hours. Culture media was then collected for determination of IL-6 levels using Meso Scale Technology.
# [2] = cited from earlier work
# TNF-α, IL-6, and IL-8 = experiment: Ex vivo IL-1β-induced TNF-α, IL-6 and IL-8 in blood of dosed healthy subjects; details: human
# Procedure: Methods: Safety, pharmacokinetics (PK) and pharmacodynamics (PD) were assessed in two cohorts of subjects in a randomized, observer-blind, placebo-controlled study in male and female healthy subjects aged 18-55 (n=77). The study consisted of twenty (20) subjects enrolled into 2 cohorts. […] The final dose was administered in the morning on Day 7. Blood samples were obtained Day 1—before dosing, Day 1—4 hours after dosing and Day 1—12 hours after dosing and Day 7—before dosing, Day 7—4 hours after dosing, day 7—12 hour after dosing and Day 7—24 hours after dosing for each subject.
# [3] = Phase 2a RA study: safety (adverse events)
# Procedure: Patient eligibility was assessed based on the following criteria: (i) a diagnosis of adult onset RA (ACR/EULAR classification criteria); (ii) DAS28-CRP≥3.2 defined as moderate to high disease activity; (iii) moderately to severely active RA defined by at least 4/28 tender and 4/28 swollen joints; (iv) hsCRP≥5 mg/L at screening; (v) definitive intra-articular synovitis or osteitis defined as a score of 1 or greater on a Hand-Wrist MM (using RAMRIS); (vi) stable MTX dose (defined as 7.5 mg to 25 mg weekly) for at least 4 weeks prior to the screening visit. […] Study medications were administered orally for 12 weeks. Patients were required to remain on a stable dose of MTX (7.5 mg to 25 mg/week) and a stable dose of folic or folinic acid (≥5 mg/week) for the duration of the study.
# Patients attended clinic visits on Days 7, 14, 28, 42, 56, and 84 (±1 day) for safety, efficacy, PK, and PD assessments. The morning dose of study medication was administered in the clinic on each study visit day.
# At the completion of 4 weeks of treatment (Day 28), each patient's safety data (e.g., AEs, laboratory values, vital signs, and ECGs) will be reviewed to ensure that the patient is tolerating the treatment regimen and is deemed suitable to continue treatment for the next 8 weeks.
smiles,measurement,setting,value
"Cc1cnc(-c2ccnc(C(C)(C)O)n2)cc1-n1c(C)cc(OCc2ncc(F)cc2F)c(Cl)c1=O (single isomer, unassigned) [ATI-450, 3-chloro-4-((3,5-difluoropyridin-2-yl)methoxy)-2′-(2-(2-hydroxypropan-2-yl)pyrimidin-4-yl)-5′,6-dimethyl-2H-[1,4′-bipyridin]-2-one]",IC50,"TNF-α; Human Whole Blood, LPS, 100 ng/mL, 4 or 24 hr, read-out: IC50, TNF-α",29 ± 9 nM
same,IC50,"TNF-α; human whole blood, LPS 100 ng/mL, read-out: IC50, LPS-stimulated TNF-α",10 to 100 nM
same,"median concentrations of endogenous TNF-α, IL-6, IL-8, and MIP1β",[1]; 12-week period,marked and sustained inhibition
same,endogenous plasma IL-1RA,[1]; 12 weeks,not impacted by ATI-450
same,"endogenous plasma IL-6, IL-8, and MIP1β",[1]; 12 weeks,reduced at week 4 and this reduction was maintained through the 12 weeks
same,endogenous plasma TNF-α,[1]; trough,rapidly reduced by 4 weeks of dosing
same,IC50,IL-6,11.1 ± 7.6 nM
same,bone marrow IL-1β in murine NOMID model,[2]; relative to placebo,reduction in bone marrow levels of IL-1β
same,effect on disease in murine NOMID model,[2]; transgenic animal model,dramatic attenuation of disease
same,"ex vivo IL-1β-induced TNF-α, IL-6, and IL-8","TNF-α, IL-6, and IL-8",potently inhibits
same,tolerability,"[3]; 50 mg BID plus MTX, 12 weeks","very well tolerated, with no serious or severe adverse events reported"
same,"Abnormal ECG, Mild, n (%)","[3]; 50 mg BID, RA patients, n = 16",1 (6.25)
same,"Abnormal ECG, Moderate, n (%)","[3]; 50 mg BID, RA patients, n = 16",0
same,"Blood cholesterol increased, Mild, n (%)","[3]; 50 mg BID, RA patients, n = 16",1 (6.25)
same,"Blood cholesterol increased, Moderate, n (%)","[3]; 50 mg BID, RA patients, n = 16",0
same,"Blood creatine phosphokinase increased, Mild, n (%)","[3]; 50 mg BID, RA patients, n = 16",0
same,"Blood creatine phosphokinase increased, Moderate, n (%)","[3]; 50 mg BID, RA patients, n = 16",1 (6.25)
same,"Constipation, Mild, n (%)","[3]; 50 mg BID, RA patients, n = 16",1 (6.25)
same,"Constipation, Moderate, n (%)","[3]; 50 mg BID, RA patients, n = 16",0
same,"Ear infection, Mild, n (%)","[3]; 50 mg BID, RA patients, n = 16",1 (6.25)
same,"Ear infection, Moderate, n (%)","[3]; 50 mg BID, RA patients, n = 16",0
same,"Essential hypertension, Mild, n (%)","[3]; 50 mg BID, RA patients, n = 16",0
same,"Essential hypertension, Moderate, n (%)","[3]; 50 mg BID, RA patients, n = 16",1 (6.25)
same,"Hyperliidaemia, Mild, n (%)","[3]; 50 mg BID, RA patients, n = 16",0
same,"Hyperliidaemia, Moderate, n (%)","[3]; 50 mg BID, RA patients, n = 16",1 (6.25)
same,"Hypokalaemia, Mild, n (%)","[3]; 50 mg BID, RA patients, n = 16",0
same,"Hypokalaemia, Moderate, n (%)","[3]; 50 mg BID, RA patients, n = 16",1 (6.25)
same,"Ligament sprain, Mild, n (%)","[3]; 50 mg BID, RA patients, n = 16",1 (6.25)
same,"Ligament sprain, Moderate, n (%)","[3]; 50 mg BID, RA patients, n = 16",0
same,"Low density lipoprotein increased, Mild, n (%)","[3]; 50 mg BID, RA patients, n = 16",1 (6.25)
same,"Low density lipoprotein increased, Moderate, n (%)","[3]; 50 mg BID, RA patients, n = 16",0
same,"Mouth ulceration, Mild, n (%)","[3]; 50 mg BID, RA patients, n = 16",1 (6.25)
same,"Mouth ulceration, Moderate, n (%)","[3]; 50 mg BID, RA patients, n = 16",0
same,"Palpitations, Mild, n (%)","[3]; 50 mg BID, RA patients, n = 16",1 (6.25)
same,"Palpitations, Moderate, n (%)","[3]; 50 mg BID, RA patients, n = 16",0
same,"Rash erythematous, Mild, n (%)","[3]; 50 mg BID, RA patients, n = 16",1 (6.25)
same,"Rash erythematous, Moderate, n (%)","[3]; 50 mg BID, RA patients, n = 16",0
same,"Sinusitis, Mild, n (%)","[3]; 50 mg BID, RA patients, n = 16",0
same,"Sinusitis, Moderate, n (%)","[3]; 50 mg BID, RA patients, n = 16",1 (6.25)
same,"Skin abrasion, Mild, n (%)","[3]; 50 mg BID, RA patients, n = 16",1 (6.25)
same,"Skin abrasion, Moderate, n (%)","[3]; 50 mg BID, RA patients, n = 16",0
same,"Urinary tract infection, Mild, n (%)","[3]; 50 mg BID, RA patients, n = 16",0
same,"Urinary tract infection, Moderate, n (%)","[3]; 50 mg BID, RA patients, n = 16",2 (12.5)
same,"Ventricular extrasystoles, Mild, n (%)","[3]; 50 mg BID, RA patients, n = 16",1 (6.25)
same,"Ventricular extrasystoles, Moderate, n (%)","[3]; 50 mg BID, RA patients, n = 16",0
same,"White blood cell count increased, Mild, n (%)","[3]; 50 mg BID, RA patients, n = 16",1 (6.25)
same,"White blood cell count increased, Moderate, n (%)","[3]; 50 mg BID, RA patients, n = 16",0
